Usually Ki stands for the equilibrium dissociation constant of an inhibitor or competing ligand from its target.

Assay [1] addresses T1, MERTK (Homo sapiens, UniProt Q12866).
T1 sequence (Q12866 21-999): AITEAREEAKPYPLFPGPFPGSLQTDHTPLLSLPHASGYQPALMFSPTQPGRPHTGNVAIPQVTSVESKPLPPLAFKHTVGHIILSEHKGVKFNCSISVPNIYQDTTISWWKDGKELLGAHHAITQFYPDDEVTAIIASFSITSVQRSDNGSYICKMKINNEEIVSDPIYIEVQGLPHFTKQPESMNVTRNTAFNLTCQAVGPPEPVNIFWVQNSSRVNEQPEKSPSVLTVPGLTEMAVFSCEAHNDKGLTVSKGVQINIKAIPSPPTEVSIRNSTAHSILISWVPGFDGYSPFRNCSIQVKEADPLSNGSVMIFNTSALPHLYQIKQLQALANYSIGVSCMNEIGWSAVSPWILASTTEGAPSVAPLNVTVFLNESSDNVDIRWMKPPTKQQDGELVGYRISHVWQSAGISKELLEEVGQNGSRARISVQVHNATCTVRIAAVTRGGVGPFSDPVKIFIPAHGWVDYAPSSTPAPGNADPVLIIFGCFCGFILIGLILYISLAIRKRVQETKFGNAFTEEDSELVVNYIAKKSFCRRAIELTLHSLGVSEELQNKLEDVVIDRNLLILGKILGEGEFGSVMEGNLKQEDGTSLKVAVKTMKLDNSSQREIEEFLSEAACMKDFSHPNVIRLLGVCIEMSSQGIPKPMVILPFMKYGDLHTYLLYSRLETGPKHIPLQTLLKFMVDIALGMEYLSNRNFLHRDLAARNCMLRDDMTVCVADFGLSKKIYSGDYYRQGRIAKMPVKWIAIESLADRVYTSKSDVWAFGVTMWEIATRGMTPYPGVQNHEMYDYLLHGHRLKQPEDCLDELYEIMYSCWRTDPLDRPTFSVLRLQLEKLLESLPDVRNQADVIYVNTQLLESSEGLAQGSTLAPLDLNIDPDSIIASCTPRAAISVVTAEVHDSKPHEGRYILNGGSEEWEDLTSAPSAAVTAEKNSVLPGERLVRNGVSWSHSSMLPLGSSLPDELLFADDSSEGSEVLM
The experiment in a line: IMAP fluorescence polarization kinase assay, MERTK. The class given is biochemical. The settings on record: ATP 2.69 μM, enzyme 1.5 nM, 240 minutes, read-out: MERTK inhibitory constant (Ki). The protocol:
(§1) Activities of compounds against each of TYRO3, AXL, and MERTK as well as against FLT3, were determined using an immobilized metal ion affinity-based fluorescence polarization (“IMAP”) assay. A fluorescently-labeled substrate peptide was phosphorylated in the kinase reaction, after which a binding solution containing large trivalent metal-based nanoparticles was added and the phosphorylated substrate binds to these beads. This reduces the rotational speed of the substrate which is then detected using fluorescence polarization as a read-out.
(§2) The substrates used for each enzyme are as follows: AXL: 5F1-KKKKEEIYFFFG-NH2(SEQ ID NO:1); FLT3: 5F1-KKKKEEIYFFF-NH2 (SEQ ID NO:2); MERTK: 5F1-EFPIYDFLPAKKK-NH2 (SEQ ID NO:3); and TYRO3: 5F1-EFPIYDFLPAKKK-NH2 (SEQ ID NO:4).
(§3) This assay was performed in a 384-well, polystyrene microplate in a final volume of 8 μl. Substrate (final concentration=400 nM), ATP (final concentrations=24.7μM for AXL; 2.74 μM for FLT3; 2.69 μM for MERTK; and 54.0 μM for TYRO3), compounds and enzyme (final concentrations=2.5 nM for AXL, FLT3 and TYRO3; 1.5 nM for MERTK) were pipetted in this order into the appropriate reaction buffer (AXL: 50 mM HEPES, pH 8.0, 1 mM DTT, 10 mM MgCl2, 0.01% BRU35, 0.01% Triton X-100; FLT3: 50 mM HEPES, pH 8.0, 1 mM DTT, 10 mM MgCl2, 0.01% Triton X-100, 0.01% NP40; MERTK/TYRO3: 50 mM HEPES, pH 8.0, 1 mM DTT, 10 mM MgCl2, 0.01% Triton X-100) and incubated at room temperature for varying times (AXL, FLT3 and MERTK: 240 minutes; TYRO3: 60 minutes). IMAP binding solution was then dispensed, the plate incubated for 60 minutes at room temperature and the fluorescence polarization measured. Data were analyzed using XLfit.
For orientation: Fluorescence polarisation rises when a labelled molecule tumbles more slowly, as on binding a larger partner.

Assay [2] concerns the target T2, TYRO3 (Homo sapiens, UniProt Q06418).
T2 sequence (Q06418 41-890): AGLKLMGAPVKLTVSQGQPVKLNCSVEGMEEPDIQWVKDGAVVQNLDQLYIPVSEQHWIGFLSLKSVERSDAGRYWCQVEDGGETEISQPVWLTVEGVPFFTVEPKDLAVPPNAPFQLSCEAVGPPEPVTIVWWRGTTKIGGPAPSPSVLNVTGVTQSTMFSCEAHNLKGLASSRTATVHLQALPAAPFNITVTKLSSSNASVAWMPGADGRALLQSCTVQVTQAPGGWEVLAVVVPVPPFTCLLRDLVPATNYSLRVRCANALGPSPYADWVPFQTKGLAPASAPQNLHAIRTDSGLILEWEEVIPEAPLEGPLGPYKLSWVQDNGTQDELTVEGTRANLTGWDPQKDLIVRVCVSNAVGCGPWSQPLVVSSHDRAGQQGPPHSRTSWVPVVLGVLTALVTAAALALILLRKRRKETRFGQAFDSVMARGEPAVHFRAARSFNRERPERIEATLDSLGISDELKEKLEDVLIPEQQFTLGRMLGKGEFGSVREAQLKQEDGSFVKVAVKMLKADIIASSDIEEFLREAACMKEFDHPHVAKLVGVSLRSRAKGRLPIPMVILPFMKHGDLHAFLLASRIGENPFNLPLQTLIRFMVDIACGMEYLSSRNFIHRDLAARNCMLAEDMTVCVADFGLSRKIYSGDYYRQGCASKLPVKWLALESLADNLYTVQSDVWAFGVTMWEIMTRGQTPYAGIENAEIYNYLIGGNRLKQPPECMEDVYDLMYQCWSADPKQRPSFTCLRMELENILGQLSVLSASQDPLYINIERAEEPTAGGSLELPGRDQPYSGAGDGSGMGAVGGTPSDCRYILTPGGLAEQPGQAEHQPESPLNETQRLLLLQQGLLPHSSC
The experiment in a line: IMAP fluorescence polarization kinase assay, TYRO3. The class given is biochemical. The conditions noted are these: ATP 54.0 μM, enzyme 2.5 nM, 60 minutes, read-out: TYRO3 inhibitory constant (Ki). As to the method: as §1, §2, §3

Each structure is given as a SMILES string.

`CCCC(O)c1cc2c(N[C@H]3CC[C@H](N)CC3)c(C(=O)Nc3ccc(F)cc3)cnc2[nH]1` (stereo partly drawn) [Compound 154]: the Ki in assay [1] was 1 to 10 µM; in assay [2], 0.1 to 1 µM.
`COCC(C)c1cc2c(N[C@H]3CC[C@H](N)CC3)c(C(=O)Nc3ccc(F)cc3)cnc2[nH]1` (stereo partly drawn) [Compound 155]: the Ki is 0.1 to 1 µM in assay [1] and less than 0.1 µM in assay [2].
As to `CC[C@H](C)c1cc2c(N[C@H]3CC[C@H](N)CC3)c(C(=O)Nc3ccc(F)cc3)cnc2[nH]1` [Compound 156], the Ki in assay [1] and in assay [2] was less than 0.1 µM throughout.
In the case of `CCC(C)c1cc2c(N[C@H]3CC[C@H](O)CC3)c(C(=O)NC3CCN(c4ncccn4)CC3)cnc2[nH]1` (stereo partly drawn) [Compound 157], the Ki in assay [1] and in assay [2] was 1 to 10 µM each time.
As for `CCC(C)c1cc2c(N[C@H]3CC[C@H](O)CC3)c(C(=O)NC3CCN(C4=NCCCN4)CC3)cnc2[nH]1` (stereo partly drawn) [Compound 158], the Ki in assay [1] and in assay [2] was less than 0.1 µM throughout.
On to `CCC(C)c1cc2c(N[C@H]3CC[C@H](O)CC3)c(-c3ccc(S(=O)(=O)N4CCOCC4)cn3)cnc2[nH]1` (stereo partly drawn) [Compound 159], for which the Ki in assay [1] and in assay [2] was 1 to 10 µM in each case.

The values above are taken from patent US20200071326A1, “TAM KINASE INHIBITORS” (Syros Pharmaceuticals, Inc., priority 2017, published 2020).
